Results reported in the NIST ThermoML archive (doi:10.1007/s10765-013-1404-4).
Numbers after ± are expanded uncertainties.

Key:
[1] = Crystal; DTA
[2] = Molar enthalpy of transition or fusion; conditions: Crystal; DSC

Normal melting temperature [1] | Molar enthalpy of transition or fusion [2] | SMILES
53.50 ± 0.41 °C | 4.7 ± 0.454 kcal/mol | c1ccc(Nc2ccccc2)cc1 [diphenylamine]
172.30 ± 0.41 °C | 4.39 ± 0.454 kcal/mol | O=[N+]([O-])c1ccccc1Nc1ccccc1[N+](=O)[O-] [bis(2-nitrophenyl)amine]
74.79 ± 0.41 °C | 6.25 ± 0.454 kcal/mol | O=[N+]([O-])c1ccccc1Nc1ccccc1 [2-nitrodiphenylamine]
71.87 ± 0.41 °C | 8.02 ± 0.454 kcal/mol | CCN(C(=O)N(CC)c1ccccc1)c1ccccc1 [1,3-diethyl-1,3-diphenylurea]

SMILES | Normal melting temperature [1] | Molar enthalpy of transition or fusion [2]
CCN(N=O)c1ccc([N+](=O)[O-])cc1 [N-nitroso-N-ethyl-4-nitroaniline] | 118.60 ± 0.41 °C | 7.45 ± 0.454 kcal/mol
